# Experimental data: article PMC11530130, “Peripherally restricted PICK1 inhibitor mPD5 ameliorates pain behaviors in murine inflammatory and neuropathic pain models” (JCI Insight, 2024)
# Several values for one entry are separate records, joined by “and”; a condition that tells them apart may be missing. Equal entries are not always repeated.
# Tests used:
# [1] = test system: mice, spared nerve injury (SNI) model; test: SNI model of neuropathic pain, von Frey, single s.c. dose, male mice day 7; assay type: in vivo, mouse
# Experimental: Induction of neuropathic pain (SNI model).
# The initial SNI pain experiment (Figure 4A) was performed by Phenotype Expertise, Marseilles, France – Pain and CNS behaviour CRO under supervision of Stéphane Gaillard, PhD (CEO). Surgery was performed on 8-week-old C57BL/6J male mice (Charles River). The spared nerve injury surgery was performed on anaesthetized mice with a buprenorphine […]
# solution (0.05 mg/kg) injected s.c. 30 min before surgery (10 μL/g). For surgery, mice were anaesthetised with ketamine (100 mg/kg, i.p.) and xylazine (10 mg/kg, i.p.) (volume 10 µL/g) with 100 μL of 1% xylocaine solution infiltrated at the site of the incision. The distal trifurcation of the sciatic nerve was identified, and the tibial and common peroneal branches were ligated with polypropylene nonabsorbable 6-0 sutures (Ethicon) and 1 mm was cut out, leaving the sural branch intact. The wound was closed with sutures, and the animals were allowed to recover and returned to their cages. Two subcutaneous injections of buprenorphine (0.05 mg/kg) were performed with an 8 to 12 hours delay decreasing pain due to the surgery […]
# The remaining SNI pain experiments were performed in-house using the following procedure.
# SNI surgery was performed on the left hindleg of C57BL/6J male and female mice (Janvier, France) under 2% isoflurane anaesthesia. Skin on the lateral surface was incised between hip and knee followed by lengthwise division of the biceps femoris muscle leading to exposure of the three branches of the sciatic nerve. Sural branch was left intact, while the peroneal and tibial branches were ligated with a single surgical knot and axotomized distally of the ligation.
# Wounds were closed with surgical glue or medical clips and animals were monitored daily for signs of stress or discomfort, but in all cases recovered uneventfully.
# Induction of Diabetic neuropathy (STZ model).
# Diabetes was induced by a single i.p. injection of […] streptozocin (STZ) solution (100 μL/10 g, Sigma-Aldrich S0130, batch #WXBB7152V) in male seven-week-old C57BL/6J (Charles River) mice. Glycemia was tested before, and seven days after injection. All injected mice had blood glucose concentration >350 mg/dL from day seven and were used for analgesic testing of the compounds from day 14. One mouse had to be euthanized at seven days post injection. This experiment was performed by Phenotype Expertise, Marseilles, France - Pain and CNS behaviour CRO under supervision of Stéphane Gaillard, PhD (CEO).
# Induction of cancer induced bone pain (CIBP model).
# Osteosarcoma cell line NCTC 2472 (American Type Culture Collection, CCL-11TM) was cultured for two weeks prior to surgery in NCTC-135 medium (Sigma-Aldrich, Denmark) supplemented with sodium hydrogen carbonate and 10% equine serum (Sigma-Aldrich, Denmark). On the day of surgery, cells were washed with PBS and incubated with 3 mL trypsin-EDTA for five min followed by centrifugation (2800 rpm, 3 min). Supernatant was removed, and cell pellet resuspended in PBS to obtain a cell density of 10^7 cells/mL.
# Two separate cohorts of female C3H/HeNHsd mice (Envigo, Netherlands) of 7-8 weeks, were anaesthetized with 6.25 mg/kg xylazine (Rompun vet, 20 mg/mL, Bayer, KVP Pharma + Veterinär Produkte GmbH, Germany, Batch: KV02BHF) and 43.75 mg/kg ketamine (Ketaminol vet, 100 mg/mL, MSD Animal Health, AN Boxmeer, The Netherlands, Batch:
# A140A01) and received 1.0-1.2% isoflurane (1000 mg/g isoflurane, Attane vet, ScanVet, Piramal Critical Care Ltd., UK, Batch: G123J18B) during surgery. The mouse was placed on a 37 °C heating pad. Both hind legs were shaved, and a small horizontal incision was made under the knee followed by a vertical incision of approximately 0.5 cm until the patellar tendon was exposed. The patellar tendon was moved to the lateral side exposing the distal epiphysis of the femur. A hole was made in the middle of the distal epiphysis by gently pushing a 30 G needle (0.3x12 mm, 30 Gx1/2”, Luer-Lock, CHIRANA T. Injecta, CH30012) through the bone […]
# while rotating. […]
# naive mice = test: Barnes maze (spatial learning and memory, reversal learning); assay type: in vivo, mouse; conditions: for Barnes maze, count per hole (Fig S8D) / Barnes maze, count per hole (Fig S8E): individual animals;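 as to Barnes maze, count per hole (Fig S8D): Nose pokes per hole during a probe trial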;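 as to Barnes maze, count per hole (Fig S8E): Nose pokes per hole during a probe trial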
# Experimental: Spatial learning and memory.
# On each day, animals were moved from the housing facility to the experimental room and allowed to acclimatize for at least 60 min before initiation of the experiment. All drugs used (PBS or 10 μmol/kg mPD5) were injected s.c. in a 10 μl/g body weight volume 60 min before first placement on the Barnes’ maze on day 1-9 of the experiment. The experiment was divided into Barnes maze habituation, spatial acquisition (training) and probe trials. During habituation to the Barnes maze itself, animals were placed under a cylinder in the middle of the Barnes maze for 10 seconds and then gently guided to the escape box and left there for two min. During spatial acquisition (training), each mouse was placed under a cylinder in the middle of the Barnes maze for 10 sec followed by up to three min of free exploration of the Barnes maze.
# Once the animal entered the escape cage, it was left there for one min before being transferred back to its home cage for 15-20 min. This training was performed four times per day per mouse.
# During probe trials the reference memory of the animal was tested by placing each mouse under a cylinder in the middle of the Barnes maze for 10 sec followed by 90 sec of free exploration of the Barnes maze with no escape cage. On days 6-8, the escape hole was moved 90 degrees, and all mice went through the second bout of training. On day nine, a second probe trial was performed testing the reversal learning of the mice. […]
# Single exposure place preference. […]
structure (smiles),measurement,setting,value
"CCCCCCCCCCCCCC(=O)N(CCOCCOCCC(=O)N[C@@H](Cc1c[nH]cn1)C(=O)N[C@@H](Cc1c[nH]c2ccccc12)C(=O)N[C@@H](CC(C)C)C(=O)N[C@@H](CCCCN)C(=O)N[C@H](C(=O)O)C(C)C)CCOCCOCCC(=O)N[C@@H](Cc1c[nH]cn1)C(=O)N[C@@H](Cc1c[nH]c2ccccc12)C(=O)N[C@@H](CC(C)C)C(=O)N[C@@H](CCCCN)C(=O)N[C@H](C(=O)O)C(C)C [mPD5, myristoyl-NPEG4-(HWLKV)2]",effect on mechanical hypersensitivity (PWT),"[1]; SNI day 7, male mice, s.c. 2 μmol/kg",no significant effect
same,duration of significant reduction of mechanical hypersensitivity,"[1]; SNI day 7, male mice, s.c. 10 μmol/kg",up to 3 hours
same,"von Frey paw withdrawal threshold, individual animals (Fig 5B)","[1]; dose group 2, contra, BL",2 and 1.4 (4×) and 1
same,"von Frey paw withdrawal threshold, individual animals (Fig 5B)","[1]; dose group 2, contra, time 0",1.4 (2×) and 1 (4×)
same,"von Frey paw withdrawal threshold, individual animals (Fig 5B)","[1]; dose group 2, contra, time 1",1
same,"von Frey paw withdrawal threshold, individual animals (Fig 5B)","[1]; dose group 2, injured side, BL",2 (2×) and 1.4 (4×)
same,"von Frey paw withdrawal threshold, individual animals (Fig 5B)","[1]; dose group 2, injured side, time 0",0.07 (2×) and 0.16 (3×) and 0.4
same,"von Frey paw withdrawal threshold, individual animals (Fig 5B)","[1]; dose group 2, injured side, time 1",0.6 (2×) and 1 (3×) and 1.4
same,"von Frey paw withdrawal threshold, individual animals (Fig 5B)","[1]; dose group 10, contra, BL",1.4 (5×) and 1
same,"von Frey paw withdrawal threshold, individual animals (Fig 5B)","[1]; dose group 10, contra, time 0",1 (4×) and 1.4 (2×)
same,"von Frey paw withdrawal threshold, individual animals (Fig 5B)","[1]; dose group 10, contra, time 1",1 (3×) and 1.4 (3×)
same,"von Frey paw withdrawal threshold, individual animals (Fig 5B)","[1]; dose group 10, injured side, BL",1.4 (5×) and 1
same,"von Frey paw withdrawal threshold, individual animals (Fig 5B)","[1]; dose group 10, injured side, time 0",0.16 (2×) and 0.07 (3×) and 0.4
same,"von Frey paw withdrawal threshold, individual animals (Fig 5B)","[1]; dose group 10, injured side, time 1",1.4 (2×) and 1
same,"von Frey paw withdrawal threshold, individual animals (Fig 5B)","[1]; dose group 50, contra, BL",1.4 (4×) and 1 (2×)
same,"von Frey paw withdrawal threshold, individual animals (Fig 5B)","[1]; dose group 50, contra, time 0",1.4 (3×) and 1 (3×)
same,"von Frey paw withdrawal threshold, individual animals (Fig 5B)","[1]; dose group 50, contra, time 1",1.4 (4×) and 1 (2×)
same,"von Frey paw withdrawal threshold, individual animals (Fig 5B)","[1]; dose group 50, injured side, BL",1.4 (5×) and 1
same,"von Frey paw withdrawal threshold, individual animals (Fig 5B)","[1]; dose group 50, injured side, time 0",0.07 (2×) and 0.16 (2×) and 0.4 (2×)
same,"von Frey paw withdrawal threshold, individual animals (Fig 5B)","[1]; dose group 50, injured side, time 1",1 (3×) and 1.4 (2×) and 2
same,"Barnes maze, count per hole (Fig S8D)",naive mice; hole position 1,2 (3×) and 1 (2×) and 0 (2×) and 3 (2×)
same,"Barnes maze, count per hole (Fig S8E)",naive mice; hole position 1,3 (6×) and 1 (2×) and 2
same,"Barnes maze, count per hole (Fig S8D)",naive mice; hole position 2,0 (5×) and 1 (3×) and 2
same,"Barnes maze, count per hole (Fig S8E)",naive mice; hole position 2,0 (6×) and 1 (3×)
same,"Barnes maze, count per hole (Fig S8D)",naive mice; hole position 3,1 (4×) and 2 (3×) and 0 (2×)
same,"Barnes maze, count per hole (Fig S8E)",naive mice; hole position 3,1 (7×) and 0 and 2
same,"Barnes maze, count per hole (Fig S8D)",naive mice; hole position 4,0 (4×) and 2 (2×) and 1 (3×)
same,"Barnes maze, count per hole (Fig S8E)",naive mice; hole position 4,1 (6×) and 2 (2×) and 0
same,"Barnes maze, count per hole (Fig S8D)",naive mice; hole position -1,2 (3×) and 3 and 1 (2×) and 6 and 0 and 4
same,"Barnes maze, count per hole (Fig S8E)",naive mice; hole position -1,3 (4×) and 0 (2×) and 1 and 2 and 4
same,"Barnes maze, count per hole (Fig S8D)",naive mice; hole position -2,0 (8×) and 1
same,"Barnes maze, count per hole (Fig S8E)",naive mice; hole position -2,0 (4×) and 1 (4×) and 2
same,"Barnes maze, count per hole (Fig S8D)",naive mice; hole position -3,0 (6×) and 1 (2×) and 2
same,"Barnes maze, count per hole (Fig S8E)",naive mice; hole position -3,1 (5×) and 0 (2×) and 2 (2×)
same,"Barnes maze, count per hole (Fig S8D)",naive mice; hole position -4,0 (6×) and 2 (2×) and 1
same,"Barnes maze, count per hole (Fig S8E)",naive mice; hole position -4,1 (6×) and 0 (2×) and 2
same,"Barnes maze, count per hole (Fig S8D)",naive mice; hole position -5,0 (6×) and 2 (2×) and 1
same,"Barnes maze, count per hole (Fig S8E)",naive mice; hole position -5,1 (4×) and 0 (2×) and 2 (2×) and 3
same,"Barnes maze, count per hole (Fig S8D)",naive mice; hole position -6,0 (6×) and 3 and 1 (2×)
same,"Barnes maze, count per hole (Fig S8E)",naive mice; hole position -6,1 (3×) and 0 (2×) and 2 (3×) and 3
same,"Barnes maze, count per hole (Fig S8D)",naive mice; hole position -7,0
same,"Barnes maze, count per hole (Fig S8E)",naive mice; hole position -7,0
same,"Barnes maze, count per hole (Fig S8D)",naive mice; hole position Goal,2 (2×) and 3 (2×) and 6 (2×) and 1 (2×) and 4
same,"Barnes maze, count per hole (Fig S8E)",naive mice; hole position Goal,4 (3×) and 3 (3×) and 2 (2×) and 1
same,"latency to reach target and total distance moved, probe test day 5","naive mice; s.c. 10 μmol/kg 60 minutes before placement, after 4 days of training",no difference
same,latency to reach the target and total distance moved following reversal learning,"naive mice; s.c. 10 μmol/kg 60 minutes before placement, probe test day 9",no difference was observed
same,distribution of nose pokes between the holes,"naive mice; s.c. 10 μmol/kg, both probe tests",did not differ between groups
